Assay results: patent publication US11236129B2, “IL-17A binding peptides and medical uses thereof” (Dompe' Farmaceutici S.P.A., priority 2018, dated 2022)
Residues, ends and D or L forms follow the SMILES beside them.

These compounds were tested against IL-17RA/IL17RC dimerization induced by IL-17A (Homo sapiens, UniProt Q16552) (assay: IL-17RA/IL17RC dimerization assay in response to IL-17A (PathHunter Cytokine Receptor Assay)). Details: IL-17A at EC80; read-out: IC50 in IL-17RA/IL7RC dimerization assay.
Assay type: cell-based
Experimental: The peptides of Table 7 were tested for their ability to inhibit the binding of IL-17A to its receptor and the subsequent interaction of IL-17RA and IL17RC.
Interleukin receptor RA and RC dimerization assay (DiscoverX) was used to measure the interaction of the receptor chains IL-17RA and IL17RC upon activation by IL-17A in the absence or presence of the peptides of Table 7.
In the PathHunter® Cytokine Receptor Assay, one cytokine receptor chain is tagged with a small peptide epitope ProLink (PK) and the other chain is tagged with Enzyme Acceptor (EA). Ligand binding induces dimerization of the two receptors, facilitating complementation of PK and EA fragments. This interaction generates an active unit of b-galactosidase, which is detected using a chemiluminescent substrate. PathHunter cell lines were expanded from freezer stocks according to standard procedures. Cells were seeded in a total volume of 20 μL into white walled, 384-well microplates and incubated for the appropriate time prior to testing. For agonist activity inhibition, cells were incubated with sample to induce response. Intermediate dilution of sample stocks was performed to generate 5× sample in assay buffer. 5 μL of 5× sample was added to cells and incubated at 37° C. or room temperature for 60 minutes. Vehicle concentration was 1%. 5 μL of 6×EC80 agonist (IL-17A) in assay buffer was added to the cells and incubated at 37° C. for 6 to 16 hours depending on the assay. 1. […] For some assays, activity was detected using a high sensitivity detection reagent (PathHunter Flash Kit) to improve assay performance. In these assays, an equal volume of detection reagent (25 or 30 uL) was added to the wells, followed by a one hour incubation at room temperature. Microplates were read following signal generation with a PerkinElmer Envision™ instrument for chemiluminescent signal detection. Compound activity was analyzed using CBIS data analysis suite (ChemInnovation, CA). % Inhibition=100%×(1−(mean RLU of test sample−mean RLU of vehicle control)/(mean RLU of EC80 control−mean RLU of vehicle control)).

Chain of IL-17RA/IL17RC dimerization induced by IL-17A (Q16552 24-155): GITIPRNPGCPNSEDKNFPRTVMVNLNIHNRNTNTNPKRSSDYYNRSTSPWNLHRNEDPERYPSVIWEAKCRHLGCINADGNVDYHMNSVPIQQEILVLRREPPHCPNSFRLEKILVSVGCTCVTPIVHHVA

Row | IC50 [µM] | SMILES
1 | < 0.5 | CC[C@H](C)[C@H](NC(=O)[C@@H](NC(=O)[C@H](Cc1ccccc1)NC(=O)[C@H](Cc1c[nH]cn1)NC(=O)[C@@H](NC(C)=O)C(C)C)[C@@H](C)O)C(=O)N1CCC[C@H]1C(=O)N[C@@H](C)C(=O)N[C@@H](CC(=O)O)C(=O)N[C@@H](Cc1ccccc1)C(=O)N[C@@H](Cc1c[nH]c2ccccc12)C(=O)N[C@@H](CCC(=O)O)C(=O)N[C@@H](Cc1c[nH]c2ccccc12)C(=O)N[C@@H](Cc1ccccc1)C(=O)N[C@@H](CCCNC(=N)N)C(=O)N[C@@H](CCCNC(=N)N)C(N)=O [SEQ ID NO: 142] (Ac-VHFTIPADFWEWFRR-NH2)
2 | < 10 | CC(=O)N[C@H](C(=O)N[C@@H](Cc1c[nH]cn1)C(=O)N[C@H](C(=O)N[C@H](C(=O)N[C@H](C(=O)N1CCC[C@H]1C(=O)N[C@@H](CCC(N)=O)C(=O)N[C@@H](CCC(=O)O)C(=O)N[C@@H](CC(C)C)C(=O)N[C@@H](Cc1ccccc1)C(=O)N[C@@H](CCC(=O)O)C(=O)N[C@@H](Cc1c[nH]c2ccccc12)C(=O)N[C@H](C(=O)N[C@@H](CCC(=O)O)C(=O)N[C@@H](CCC(=O)O)C(N)=O)C(C)C)C(C)C)[C@@H](C)O)C(C)C)C(C)C [SEQ ID NO: 228] (Ac-VHVTVPQELFEWVEE-NH2)
3 | < 0.5 | CC(=O)N[C@H](C(=O)N[C@@H](Cc1c[nH]cn1)C(=O)N[C@@H](Cc1ccccc1)C(=O)N[C@@H](CCC(N)=O)C(=O)N[C@@H](Cc1ccccc1)C(=O)N1CCC[C@H]1C(=O)N[C@@H](CCC(N)=O)C(=O)N[C@@H](CC(=O)O)C(=O)N[C@@H](Cc1c[nH]c2ccccc12)C(=O)N[C@@H](Cc1ccc(O)cc1)C(=O)N[C@@H](CCC(=O)O)C(=O)N[C@@H](Cc1c[nH]c2ccccc12)C(=O)N[C@H](C(=O)N[C@@H](CCCNC(=N)N)C(=O)N[C@@H](CCCNC(=N)N)C(N)=O)C(C)C)C(C)C [SEQ ID NO: 138] (Ac-VHFQFPQDWYEWVRR-NH2)
4 | < 0.5 | CC(=O)N[C@H](C(=O)N[C@@H](Cc1c[nH]cn1)C(=O)N[C@@H](Cc1ccccc1)C(=O)N[C@H](C(=O)N[C@@H](Cc1ccccc1)C(=O)N1CCC[C@H]1C(=O)N[C@@H](CCC(N)=O)C(=O)N[C@@H](CC(=O)O)C(=O)N[C@@H](CC(C)C)C(=O)N[C@@H](Cc1ccc(O)cc1)C(=O)N[C@@H](CC(N)=O)C(=O)N[C@@H](Cc1c[nH]c2ccccc12)C(=O)N[C@H](C(=O)N[C@@H](CCCNC(=N)N)C(=O)N[C@@H](CCCNC(=N)N)C(N)=O)C(C)C)[C@@H](C)O)C(C)C [SEQ ID NO: 147] (Ac-VHFTFPQDLYNWVRR-NH2)
5 | < 1 | CCCCCCCCCC(=O)N[C@H](C(=O)N[C@@H](CCSC)C(=O)N[C@H](C(=O)N[C@H](C(=O)N[C@H](C(=O)N1CCC[C@H]1C(=O)N[C@@H](C)C(=O)N[C@@H](CC(=O)O)C(=O)N[C@@H](CC(C)C)C(=O)N[C@@H](Cc1ccc(O)cc1)C(=O)N[C@@H](CCC(=O)O)C(=O)N[C@@H](Cc1c[nH]c2ccccc12)C(=O)N[C@H](C(=O)N[C@@H](CCC(=O)O)C(=O)N[C@@H](CCC(=O)O)C(N)=O)[C@@H](C)CC)[C@@H](C)CC)[C@@H](C)O)C(C)C)[C@@H](C)CC [BIO-4]
6 | < 0.5 | CC(=O)N[C@H](C(=O)N[C@@H](Cc1c[nH]cn1)C(=O)N[C@@H](Cc1ccccc1)C(=O)N[C@@H](CCC(N)=O)C(=O)N[C@@H](Cc1ccccc1)C(=O)N1CCC[C@H]1C(=O)N[C@@H](CCC(N)=O)C(=O)N[C@@H](CC(=O)O)C(=O)N[C@@H](CC(C)C)C(=O)N[C@@H](Cc1c[nH]c2ccccc12)C(=O)N[C@@H](CCC(=O)O)C(=O)N[C@@H](Cc1c[nH]c2ccccc12)C(=O)N[C@H](C(=O)N[C@@H](CCCNC(=N)N)C(=O)N[C@@H](CCCNC(=N)N)C(N)=O)C(C)C)C(C)C [SEQ ID NO: 150] (Ac-VHFQFPQDLWEWVRR-NH2)
7 | < 0.5 | CC[C@H](C)[C@H](NC(=O)[C@@H](NC(=O)[C@@H](NC(=O)[C@H](Cc1c[nH]cn1)NC(=O)[C@@H](NC(C)=O)C(C)C)C(C)C)[C@@H](C)O)C(=O)N1CCC[C@H]1C(=O)N[C@@H](CCC(N)=O)C(=O)N[C@@H](CC(=O)O)C(=O)N[C@@H](Cc1ccccc1)C(=O)N[C@@H](Cc1c[nH]c2ccccc12)C(=O)N[C@@H](CCC(=O)O)C(=O)N[C@@H](Cc1c[nH]c2ccccc12)C(=O)N[C@@H](Cc1ccccc1)C(=O)N[C@@H](CCCNC(=N)N)C(=O)N[C@@H](CCCNC(=N)N)C(N)=O [SEQ ID NO: 145] (Ac-VHVTIPQDFWEWFRR-NH2)
8 | < 10 | CC(=O)N[C@H](C(=O)N[C@@H](Cc1c[nH]cn1)C(=O)N[C@H](C(=O)N[C@H](C(=O)N[C@H](C(=O)N1CCC[C@H]1C(=O)N[C@@H](CCC(N)=O)C(=O)N[C@@H](CCC(=O)O)C(=O)N[C@@H](CC(C)C)C(=O)N[C@@H](Cc1c[nH]c2ccccc12)C(=O)N[C@@H](CCC(=O)O)C(=O)N[C@@H](Cc1c[nH]c2ccccc12)C(=O)N[C@H](C(=O)N[C@@H](CCCNC(=N)N)C(=O)N[C@@H](CCCNC(=N)N)C(N)=O)C(C)C)C(C)C)[C@@H](C)O)C(C)C)C(C)C [SEQ ID NO: 224] (Ac-VHVTVPQELWEWVRR-NH2)
9 | < 10 | CC[C@H](C)[C@H](NC(C)=O)C(=O)N[C@@H](Cc1c[nH]cn1)C(=O)N[C@H](C(=O)N[C@H](C(=O)N[C@H](C(=O)N1CCC[C@H]1C(=O)N[C@@H](CCC(N)=O)C(=O)N[C@@H](CC(=O)O)C(=O)N[C@@H](CC(C)C)C(=O)N[C@@H](Cc1c[nH]c2ccccc12)C(=O)N[C@@H](CC(=O)O)C(=O)N[C@@H](Cc1c[nH]c2ccccc12)C(=O)N[C@H](C(=O)N[C@@H](CC(N)=O)C(=O)N[C@@H](CCCCN)C(N)=O)[C@@H](C)CC)[C@@H](C)CC)[C@@H](C)O)C(C)C [SEQ ID NO: 198] (Ac-IHVTIPQDLWDWINK-NH2)
10 | < 10 | CC[C@H](C)[C@H](NC(C)=O)C(=O)N[C@@H](Cc1c[nH]cn1)C(=O)N[C@H](C(=O)N[C@H](C(=O)N[C@H](C(=O)N1CCC[C@H]1C(=O)N[C@@H](C)C(=O)N[C@@H](CC(=O)O)C(=O)N[C@@H](CC(C)C)C(=O)N[C@@H](Cc1c[nH]c2ccccc12)C(=O)N[C@@H](CC(=O)O)C(=O)N[C@@H](Cc1c[nH]c2ccccc12)C(=O)N[C@H](C(=O)N[C@@H](CC(N)=O)C(=O)N[C@@H](CC(=O)O)C(N)=O)[C@@H](C)CC)[C@@H](C)CC)[C@@H](C)O)C(C)C [SEQ ID NO: 223] (Ac-IHVTIPADLWDWIND-NH2)
11 | < 10 | CC[C@H](C)[C@H](NC(C)=O)C(=O)N[C@@H](Cc1c[nH]cn1)C(=O)N[C@H](C(=O)N[C@H](C(=O)N[C@H](C(=O)N1CCC[C@H]1C(=O)N1CCC[C@H]1C(=O)N[C@@H](CC(=O)O)C(=O)N[C@@H](CC(C)C)C(=O)N[C@@H](Cc1c[nH]c2ccccc12)C(=O)N[C@@H](CC(=O)O)C(=O)N[C@@H](Cc1c[nH]c2ccccc12)C(=O)N[C@H](C(=O)N[C@@H](CC(N)=O)C(=O)N[C@@H](CCCCN)C(N)=O)[C@@H](C)CC)[C@@H](C)CC)[C@@H](C)O)C(C)C [SEQ ID NO: 194] (Ac-IHVTIPPDLWDWINK-NH2)
12 | < 10 | CC[C@H](C)[C@H](NC(C)=O)C(=O)N[C@@H](Cc1c[nH]cn1)C(=O)N[C@@H](C)C(=O)N[C@H](C(=O)N[C@H](C(=O)N1CCC[C@H]1C(=O)N[C@@H](C)C(=O)N[C@@H](CC(=O)O)C(=O)N[C@@H](CC(C)C)C(=O)N[C@@H](Cc1c[nH]c2ccccc12)C(=O)N[C@@H](CC(=O)O)C(=O)N[C@@H](Cc1c[nH]c2ccccc12)C(=O)N[C@H](C(=O)N[C@@H](CC(N)=O)C(=O)N[C@@H](CCCCN)C(N)=O)[C@@H](C)CC)[C@@H](C)CC)[C@@H](C)O [SEQ ID NO: 167] (Ac-IHATIPADLWDWINK-NH2)
13 | < 10 | CC[C@H](C)[C@H](NC(C)=O)C(=O)N[C@@H](Cc1c[nH]cn1)C(=O)N[C@H](C(=O)N[C@H](C(=O)N[C@H](C(=O)N1CCC[C@H]1C(=O)N[C@@H](C)C(=O)N[C@@H](CC(=O)O)C(=O)N[C@@H](CC(C)C)C(=O)N[C@@H](Cc1c[nH]cn1)C(=O)N[C@@H](CC(=O)O)C(=O)N[C@@H](Cc1c[nH]c2ccccc12)C(=O)N[C@H](C(=O)N[C@@H](CC(N)=O)C(=O)N[C@@H](CCCCN)C(N)=O)[C@@H](C)CC)[C@@H](C)CC)[C@@H](C)O)C(C)C [SEQ ID NO: 206] (Ac-IHVTIPADLHDWINK-NH2)
14 | < 10 | CC[C@H](C)[C@H](NC(C)=O)C(=O)N[C@@H](Cc1c[nH]cn1)C(=O)N[C@H](C(=O)N[C@H](C(=O)N[C@H](C(=O)N1CCC[C@H]1C(=O)N[C@@H](C)C(=O)N[C@@H](CC(=O)O)C(=O)NCC(=O)N[C@@H](Cc1c[nH]c2ccccc12)C(=O)N[C@@H](CC(=O)O)C(=O)N[C@@H](Cc1c[nH]c2ccccc12)C(=O)N[C@H](C(=O)N[C@@H](CC(N)=O)C(=O)N[C@@H](CCCCN)C(N)=O)[C@@H](C)CC)[C@@H](C)CC)[C@@H](C)O)C(C)C [SEQ ID NO: 202] (Ac-IHVTIPADGWDWINK-NH2)
